Measurements as given in US11413278B2, “Compounds and methods for promoting stress resistance” (priority 2015, dated 2022).
Entries after “also recorded” stand apart in the source; their conditions may differ. Like-named read-outs stand apart in the source and are kept apart here.

Columns and labels:
human PARP1 = molecular target: T1, human PARP1 (Homo sapiens, UniProt P09874); experiment: PARP inhibitor assay (HT Fluorescent Homogeneous PARP Inhibition Assay Kit); format: biochemical; conditions: for L = PARP inhibition: score
T1 construct: purchased Trevigen
Method in brief: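 Compounds (10 μM final) incubated 30 min, room temperature, dark, with human PARP1, nicotinamide adenine dinucleotide and activated DNA. Fluorescent signal generated by 1 hr cycling with diaphorase and resazurin, then reaction stopped.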

FOXO3 = experiment: qPCR analysis of FOXO3-regulated genes; format: cell-based, human; conditions: for Induction of at least two of five FOXO3-regulated genes (SOD2, GADD45A, CAT, DDB1, TXNIP): WI-38; for fold induction at 10 µM: Homo sapiens; for K = Sestrin induction: score
Method in brief: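 FOXO3 target-gene expression quantified by qPCR normalised to B2M, PPIA and GAPDH, in WI-38 cells after 24 h exposure to 10 μM compound. Some runs used cells first transfected 36 h with 10 nM FOXO3 or NRF2 siRNA and replated ~24 h before dosing.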

C. elegans = format: in vivo, Caenorhabditis elegans; conditions: in vivo
Method in brief: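 Survival under oxidative stress: 500 μM H2O2 (final) was added to day-4 adults kept in liquid with compounds, FUdR present, 4 wells per molecule and 0.2% DMSO controls, with daily scoring of viability.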

[1] = 24 h, Assay 10(m), at 10 uM, qPCR, read-out: Induction of FOXO3-regulated genes: TXNIP normalized fold-change
[2] = 10 μM, 24 hrs, WI-38 cells, qPCR, normalized to B2M, n = 4, read-out: TXNIP expression, normalized fold change (FOXO3-regulated gene)
[3] = WI-38 cells, 10 μM, 24 hrs, n=4, qPCR normalized by B2M, read-out: DDB1 Normalized fold change
[4] = WI-38 cells, 10 μM, 24 hrs, n=4, qPCR normalized by B2M, read-out: GADD45A Normalized fold change
[5] = WI-38 cells, 10 μM, 24 hrs, n=4, qPCR normalized by B2M, read-out: SESN1 Normalized fold change
[6] = fold change, qPCR, WI-38 cells, 10 μM, 24 hrs, read-out: Summary of effects on FOXO3-regulated genes: TXNIP
[7] = qPCR, WI-38 cells, 10 μM, n=4, 24 hrs, normalized by B2M, read-out: CAT Normalized fold change
[8] = qPCR, WI-38 cells, 10 μM, n=4, 24 hrs, normalized by B2M, read-out: SOD2 Normalized fold change
[9] = qPCR, WI-38 cells, 10 μM, n=4, 24 hrs, normalized by B2M, read-out: TXNIP Normalized fold change
[10] = 24 h, Assay 10(m), at 10 uM, qPCR, read-out: Induction of FOXO3-regulated genes: GADD45A normalized fold-change
[11] = 10 μM, 24 hrs, WI-38 cells, qPCR, normalized to B2M, n = 4, read-out: GADD45A expression, normalized fold change (FOXO3-regulated gene)
[12] = fold change, qPCR, WI-38 cells, 10 μM, 24 hrs, read-out: Summary of effects on FOXO3-regulated genes: GADD45A

T1 sequence (P09874 whole entry): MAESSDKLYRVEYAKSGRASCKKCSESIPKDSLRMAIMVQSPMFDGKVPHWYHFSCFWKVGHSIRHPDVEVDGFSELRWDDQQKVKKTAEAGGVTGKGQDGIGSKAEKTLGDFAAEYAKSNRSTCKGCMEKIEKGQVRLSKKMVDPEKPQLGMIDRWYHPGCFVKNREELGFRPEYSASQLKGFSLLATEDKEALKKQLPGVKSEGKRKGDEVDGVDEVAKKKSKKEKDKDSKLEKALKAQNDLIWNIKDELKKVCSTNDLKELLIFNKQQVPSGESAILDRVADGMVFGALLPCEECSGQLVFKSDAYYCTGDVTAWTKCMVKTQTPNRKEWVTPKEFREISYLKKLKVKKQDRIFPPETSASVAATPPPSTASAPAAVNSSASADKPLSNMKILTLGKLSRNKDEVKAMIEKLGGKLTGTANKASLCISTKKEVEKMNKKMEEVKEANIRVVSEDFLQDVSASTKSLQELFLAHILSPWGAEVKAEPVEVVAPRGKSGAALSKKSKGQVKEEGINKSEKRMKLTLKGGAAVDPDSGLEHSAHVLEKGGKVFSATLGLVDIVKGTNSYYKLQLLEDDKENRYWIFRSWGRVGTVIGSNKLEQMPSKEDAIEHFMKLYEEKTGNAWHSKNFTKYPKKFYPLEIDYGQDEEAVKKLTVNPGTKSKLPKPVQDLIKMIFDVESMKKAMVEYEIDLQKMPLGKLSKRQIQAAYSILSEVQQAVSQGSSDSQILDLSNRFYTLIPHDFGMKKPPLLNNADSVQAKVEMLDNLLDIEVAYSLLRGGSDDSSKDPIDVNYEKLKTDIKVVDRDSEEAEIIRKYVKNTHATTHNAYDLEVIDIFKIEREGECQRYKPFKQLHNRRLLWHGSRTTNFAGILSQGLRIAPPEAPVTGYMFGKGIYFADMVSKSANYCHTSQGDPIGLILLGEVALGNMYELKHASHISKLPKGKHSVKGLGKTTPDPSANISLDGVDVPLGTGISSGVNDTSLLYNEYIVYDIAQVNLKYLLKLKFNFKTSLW

## Oc1ncnc2sc3c(c12)CCC3 [O14]
Human PARP1; 10 μM, in vitro
  Inhibition of PARP1: inhibitors of PARP1; also recorded: identified PARP inhibitor
Human PARP1
  L = PARP inhibition: 1
FOXO3; 10 μM, 24 hrs
  Induction of at least two of five FOXO3-regulated genes (SOD2, GADD45A, CAT, DDB1, TXNIP): significant induction
FOXO3; 2-point score
  E = Potential FOXO3 Activation: 0
FOXO3; 24 h, Assay 10(m), at 10 uM, qPCR, read-out: Induction of FOXO3-regulated genes: SOD2 normalized fold-change
  fold induction at 10 µM: 1.06
FOXO3; [1]
  fold induction at 10 µM: 1.27
FOXO3; [2]
  fold induction at 10 µM: 1.39
FOXO3; [3]
  fold induction at 10 µM: 1.08
FOXO3; [4]
  fold induction at 10 µM: 1.2
FOXO3; [5]
  fold induction at 10 µM: 1.14
FOXO3; [6]
  fold induction at 10 µM: 1.39
FOXO3; [7]
  fold induction at 10 µM: 1.03
FOXO3; [8]
  fold induction at 10 µM: 1.27
FOXO3; [9]
  fold induction at 10 µM: 1.39
FOXO3
  K = Sestrin induction: 0
FOXO3; summary score
  E = Potential FOXO3 Activation: 0
C. elegans
  L = H2O2-resistance in worms: 0
  N = H2O2-resistance in woms: 0

## CCCN1C/C(=C\c2ccc(F)cc2)C(=O)/C(=C/c2ccc(F)cc2)C1 [O15]
Human PARP1
  L = PARP inhibition: 0
FOXO3; 10 μM, 24 hrs
  Induction of at least two of five FOXO3-regulated genes (SOD2, GADD45A, CAT, DDB1, TXNIP): significant induction; also recorded: significant, induction
FOXO3; 2-point score
  E = Potential FOXO3 Activation: 0
FOXO3; 24 h, Assay 10(m), at 10 uM, qPCR, read-out: Induction of FOXO3-regulated genes: CAT normalized fold-change
  fold induction at 10 µM: 1.28
FOXO3; [10]
  fold induction at 10 µM: 2.72
FOXO3; 24 h, Assay 10(m), at 10 uM, qPCR, read-out: Induction of FOXO3-regulated genes: SESN1 normalized fold-change
  fold induction at 10 µM: 0.8
FOXO3; [1]
  fold induction at 10 µM: 0.22
FOXO3; 10 μM, 24 hrs, WI-38 cells, qPCR, normalized to B2M, n = 4, read-out: CAT expression, normalized fold change (FOXO3-regulated gene)
  fold induction at 10 µM: 1.28
FOXO3; [11]
  fold induction at 10 µM: 2.72
FOXO3; 10 μM, 24 hrs, WI-38 cells, qPCR, normalized to B2M, n = 4, read-out: SESN1 expression, normalized fold change (FOXO3-regulated gene)
  fold induction at 10 µM: 0.8
FOXO3; [2]
  fold induction at 10 µM: 0.22
FOXO3; [3]
  fold induction at 10 µM: 1.17
FOXO3; [4]
  fold induction at 10 µM: 2.71
FOXO3; [5]
  fold induction at 10 µM: 0.679
FOXO3; fold change, qPCR, WI-38 cells, 10 μM, 24 hrs, read-out: Summary of effects on FOXO3-regulated genes: CAT
  fold induction at 10 µM: 1.28
FOXO3; [12]
  fold induction at 10 µM: 2.72
FOXO3; fold change, qPCR, WI-38 cells, 10 μM, 24 hrs, read-out: Summary of effects on FOXO3-regulated genes: SESN1
  fold induction at 10 µM: 0.8
FOXO3; [6]
  fold induction at 10 µM: 0.22
FOXO3; [7]
  fold induction at 10 µM: 1.28
FOXO3; [8]
  fold induction at 10 µM: 1.05
FOXO3; [9]
  fold induction at 10 µM: 0.219
FOXO3
  K = Sestrin induction: 0
FOXO3; summary score
  E = Potential FOXO3 Activation: 0
C. elegans
  H2O2-resistance assay, 1st experiment: YES;
  H2O2-resistance assay, 2nd experiment: YES.
  L = H2O2-resistance in worms: 1
  N = H2O2-resistance in woms: 1
  Protection of C. elegans from hydrogen peroxide: protected worms from hydrogen peroxide; also recorded: protected C. elegans from hydrogen peroxide; also recorded: could protect C. elegans from hydrogen peroxide

## [O-][n+]1onc2c3nsnc3c(Br)cc21 [O17]
Human PARP1
  L = PARP inhibition: 0
FOXO3; 2-point score
  E = Potential FOXO3 Activation: 0
FOXO3; [10]
  fold induction at 10 µM: 0.85
FOXO3; [11]
  fold induction at 10 µM: 0.85
FOXO3; [3]
  fold induction at 10 µM: 1.04
FOXO3; [4]
  fold induction at 10 µM: 0.846
FOXO3; [5]
  fold induction at 10 µM: 1.11
FOXO3; [12]
  fold induction at 10 µM: 0.85
FOXO3; [7]
  fold induction at 10 µM: 1.11
FOXO3; [8]
  fold induction at 10 µM: 0.997
FOXO3; [9]
  fold induction at 10 µM: 0.801
FOXO3
  K = Sestrin induction: 0
FOXO3; summary score
  E = Potential FOXO3 Activation: 0
C. elegans
  H2O2-resistance assay, 1st experiment: YES;
  H2O2-resistance assay, 2nd experiment: YES.
  L = H2O2-resistance in worms: 1
  N = H2O2-resistance in woms: 1
  Protection of C. elegans from hydrogen peroxide: could protect C. elegans from hydrogen peroxide

## Cc1cc(C)c(C(=O)/C=C/c2ccccc2F)c(O)n1 [O18]
Human PARP1
  L = PARP inhibition: 0
FOXO3; 2-point score
  E = Potential FOXO3 Activation: 0
FOXO3; [1]
  fold induction at 10 µM: 0.3
FOXO3; [2]
  fold induction at 10 µM: 0.3
FOXO3; [3]
  fold induction at 10 µM: 1.33
FOXO3; [4]
  fold induction at 10 µM: 0.861
FOXO3; [5]
  fold induction at 10 µM: 1.06
FOXO3; [6]
  fold induction at 10 µM: 0.3
FOXO3; [7]
  fold induction at 10 µM: 1.47
FOXO3; [8]
  fold induction at 10 µM: 1.04
FOXO3; [9]
  fold induction at 10 µM: 0.297
FOXO3
  K = Sestrin induction: 0
FOXO3; summary score
  E = Potential FOXO3 Activation: 0
C. elegans
  L = H2O2-resistance in worms: 0
  N = H2O2-resistance in woms: 0
